Source: article PMC8842743 (Journal of Alzheimer's Disease Reports, 2022)

System: healthy subjects
Assay: Clinical liver safety laboratory data over time
Type: in vivo, human
Conditions: mean (SD)

## COc1cnc(C(=O)Nc2ccc(F)c([C@]34CN(c5ncc(F)cn5)C[C@H]3CSC(N)=N4)c2)cn1 [LY3202626]
1 mg daily, Day 1 predose
  ALP: 62.8 (7.6) U/L
  ALT: 19.0 (11.8) U/L
  AST: 18.4 (6.7) U/L
  Albumin: 43.9 (1.5) g/L
  GGT: 22.3 (14.8) U/L
  Total Bilirubin: 10.7 (2.8) umol/L
1 mg daily, Day 2
  ALP: 62.2 (8.7) U/L
  ALT: 18.9 (11.8) U/L
  AST: 18.4 (6.5) U/L
  Albumin: 43.8 (3.0) g/L
  GGT: 21.8 (15.6) U/L
  Total Bilirubin: 10.7 (2.6) umol/L
1 mg daily, Day 3
  ALP: 62.3 (8.4) U/L
  ALT: 18.7 (10.6) U/L
  AST: 16.1 (4.7) U/L
  Albumin: 43.1 (2.4) g/L
  GGT: 20.9 (13.9) U/L
  Total Bilirubin: 8.9 (2.3) umol/L
1 mg daily, Day 4
  ALP: 64.7 (10.7) U/L
  ALT: 20.4 (10.1) U/L
  AST: 19.6 (5.5) U/L
  Albumin: 44.0 (2.4) g/L
  GGT: 21.4 (14.5) U/L
  Total Bilirubin: 7.4 (4.2) umol/L
1 mg daily, Day 6
  ALP: 61.0 (10.9) U/L
  ALT: 18.9 (7.0) U/L
  AST: 17.7 (4.8) U/L
  Albumin: 43.1 (2.4) g/L
  GGT: 19.4 (11.8) U/L
  Total Bilirubin: 8.5 (4.5) umol/L
1 mg daily, Day 8
  ALP: 62.4 (11.3) U/L
  ALT: 20.8 (8.4) U/L
  AST: 21.3 (13.2) U/L
  Albumin: 44.1 (2.0) g/L
  GGT: 18.8 (11.5) U/L
  Total Bilirubin: 7.9 (5.0) umol/L
1 mg daily, Day 10
  ALP: 62.6 (10.0) U/L
  ALT: 24.6 (19.6) U/L
  AST: 30.2 (39.0) U/L
  Albumin: 43.3 (2.2) g/L
  GGT: 18.7 (11.3) U/L
  Total Bilirubin: 7.2 (2.1) umol/L
1 mg daily, Day 12
  ALP: 62.1 (9.7) U/L
  ALT: 24.2 (21.2) U/L
  AST: 26.2 (29.7) U/L
  Albumin: 43.2 (1.5) g/L
  GGT: 18.0 (9.9) U/L
  Total Bilirubin: 8.0 (2.8) umol/L
1 mg daily, Day 14
  ALP: 61.3 (10.6) U/L
  ALT: 22.8 (17.2) U/L
  AST: 20.2 (13.1) U/L
  Albumin: 43.6 (2.6) g/L
  GGT: 18.0 (10.1) U/L
  Total Bilirubin: 9.1 (2.7) umol/L
1 mg daily, Day 15
  ALP: 59.6 (9.6) U/L
  ALT: 20.8 (15.5) U/L
  AST: 18.3 (9.7) U/L
  Albumin: 42.6 (2.2) g/L
  GGT: 18.2 (11.0) U/L
  Total Bilirubin: 9.2 (2.5) umol/L
1 mg daily, Day 17
  ALP: 63.9 (10.6) U/L
  ALT: 23.2 (12.8) U/L
  AST: 19.3 (6.0) U/L
  Albumin: 46.0 (2.8) g/L
  GGT: 20.1 (11.8) U/L
  Total Bilirubin: 8.2 (4.0) umol/L
6 mg daily, Day 1 predose
  ALP: 64.6 (16.9) U/L
  ALT: 17.6 (5.5) U/L
  AST: 18.9 (4.0) U/L
  Albumin: 45.0 (1.7) g/L
  GGT: 21.6 (10.7) U/L
  Total Bilirubin: 8.9 (3.6) umol/L
6 mg daily, Day 2
  ALP: 66.4 (20.2) U/L
  ALT: 17.8 (3.8) U/L
  AST: 18.0 (3.0) U/L
  Albumin: 45.8 (2.5) g/L
  GGT: 21.7 (9.5) U/L
  Total Bilirubin: 9.8 (4.5) umol/L
6 mg daily, Day 3
  ALP: 65.8 (18.6) U/L
  ALT: 18.9 (4.7) U/L
  AST: 17.8 (2.9) U/L
  Albumin: 46.3 (2.1) g/L
  GGT: 22.3 (11.2) U/L
  Total Bilirubin: 7.4 (3.1) umol/L
6 mg daily, Day 4
  ALP: 67.8 (18.4) U/L
  ALT: 20.9 (5.2) U/L
  AST: 19.8 (4.7) U/L
  Albumin: 47.0 (1.9) g/L
  GGT: 24.0 (11.0) U/L
  Total Bilirubin: 6.9 (2.4) umol/L
6 mg daily, Day 6
  ALP: 63.9 (17.8) U/L
  ALT: 18.9 (4.4) U/L
  AST: 19.7 (4.9) U/L
  Albumin: 45.3 (2.7) g/L
  GGT: 22.0 (10.8) U/L
  Total Bilirubin: 8.4 (4.0) umol/L
6 mg daily, Day 8
  ALP: 64.6 (17.6) U/L
  ALT: 18.6 (2.5) U/L
  AST: 20.8 (6.2) U/L
  Albumin: 46.3 (1.6) g/L
  GGT: 21.7 (10.8) U/L
  Total Bilirubin: 8.1 (2.8) umol/L
6 mg daily, Day 10
  ALP: 62.9 (15.4) U/L
  ALT: 17.9 (2.3) U/L
  AST: 19.6 (6.0) U/L
  Albumin: 46.0 (1.7) g/L
  GGT: 20.6 (8.7) U/L
  Total Bilirubin: 8.2 (2.7) umol/L
6 mg daily, Day 12
  ALP: 63.6 (17.2) U/L
  ALT: 16.9 (2.5) U/L
  AST: 17.2 (3.8) U/L
  Albumin: 46.7 (1.6) g/L
  GGT: 20.3 (8.2) U/L
  Total Bilirubin: 7.4 (2.4) umol/L
6 mg daily, Day 14
  ALP: 62.2 (16.0) U/L
  ALT: 15.2 (2.5) U/L
  AST: 15.3 (4.3) U/L
  Albumin: 44.4 (1.8) g/L
  GGT: 19.3 (10.3) U/L
  Total Bilirubin: 8.1 (5.0) umol/L
6 mg daily, Day 15
  ALP: 58.9 (14.3) U/L
  ALT: 16.1 (2.9) U/L
  AST: 15.9 (3.9) U/L
  Albumin: 43.8 (2.1) g/L
  GGT: 18.6 (8.6) U/L
  Total Bilirubin: 7.3 (3.0) umol/L
6 mg daily, Day 17
  ALP: 65.0 (18.7) U/L
  ALT: 19.8 (4.3) U/L
  AST: 18.9 (3.5) U/L
  Albumin: 46.0 (1.7) g/L
  GGT: 20.9 (9.7) U/L
  Total Bilirubin: 6.3 (4.7) umol/L
26 mg daily, Day 1 predose
  ALP: 56.9 (12.0) U/L
  ALT: 16.9 (6.3) U/L
  AST: 15.2 (2.5) U/L
  Albumin: 46.3 (1.9) g/L
  GGT: 18.3 (8.2) U/L
  Total Bilirubin: 9.0 (2.6) umol/L
26 mg daily, Day 2
  ALP: 57.9 (11.3) U/L
  ALT: 15.6 (6.2) U/L
  AST: 14.6 (2.7) U/L
  Albumin: 46.2 (1.9) g/L
  GGT: 18.9 (8.5) U/L
  Total Bilirubin: 8.6 (2.6) umol/L
26 mg daily, Day 3
  ALP: 57.2 (11.1) U/L
  ALT: 16.2 (6.4) U/L
  AST: 14.9 (3.6) U/L
  Albumin: 45.0 (2.7) g/L
  GGT: 18.6 (8.8) U/L
  Total Bilirubin: 7.1 (2.3) umol/L
26 mg daily, Day 4
  ALP: 58.6 (10.8) U/L
  ALT: 16.9 (5.6) U/L
  AST: 16.8 (3.8) U/L
  Albumin: 46.0 (1.9) g/L
  GGT: 19.0 (9.6) U/L
  Total Bilirubin: 6.7 (1.4) umol/L
26 mg daily, Day 6
  ALP: 57.6 (12.0) U/L
  ALT: 16.2 (5.2) U/L
  AST: 17.8 (3.2) U/L
  Albumin: 44.9 (2.0) g/L
  GGT: 18.2 (8.5) U/L
  Total Bilirubin: 8.6 (3.0) umol/L
26 mg daily, Day 8
  ALP: 59.3 (10.8) U/L
  ALT: 16.8 (4.5) U/L
  AST: 16.4 (3.0) U/L
  Albumin: 46.3 (2.9) g/L
  GGT: 18.6 (7.2) U/L
  Total Bilirubin: 8.6 (4.6) umol/L
26 mg daily, Day 10
  ALP: 60.7 (11.4) U/L
  ALT: 15.8 (5.5) U/L
  AST: 16.1 (2.7) U/L
  Albumin: 45.8 (2.0) g/L
  GGT: 17.9 (7.4) U/L
  Total Bilirubin: 8.7 (4.2) umol/L
26 mg daily, Day 12
  ALP: 60.1 (9.6) U/L
  ALT: 16.9 (5.6) U/L
  AST: 18.3 (3.5) U/L
  Albumin: 44.9 (2.3) g/L
  GGT: 17.7 (7.4) U/L
  Total Bilirubin: 8.3 (4.5) umol/L
26 mg daily, Day 14
  ALP: 59.3 (10.2) U/L
  ALT: 17.1 (7.4) U/L
  AST: 16.3 (4.0) U/L
  Albumin: 43.7 (2.2) g/L
  GGT: 18.1 (8.8) U/L
  Total Bilirubin: 5.8 (2.4) umol/L
26 mg daily, Day 15
  ALP: 58.6 (9.6) U/L
  ALT: 16.8 (7.8) U/L
  AST: 16.2 (4.6) U/L
  Albumin: 44.0 (2.6) g/L
  GGT: 17.6 (8.8) U/L
  Total Bilirubin: 7.2 (1.9) umol/L
26 mg daily, Day 17
  ALP: 65.7 (11.5) U/L
  ALT: 20.0 (9.8) U/L
  AST: 18.6 (6.2) U/L
  Albumin: 45.9 (1.3) g/L
  GGT: 20.7 (11.1) U/L
  Total Bilirubin: 7.3 (4.6) umol/L
